molecular target: T1, SHP2 (Homo sapiens, UniProt Q06124); assay: SHP2 allosteric inhibitor enzyme activity assay (DiFMUP fluorescence); assay type: biochemical; details: class symbols
T1 sequence (Q06124 1-593): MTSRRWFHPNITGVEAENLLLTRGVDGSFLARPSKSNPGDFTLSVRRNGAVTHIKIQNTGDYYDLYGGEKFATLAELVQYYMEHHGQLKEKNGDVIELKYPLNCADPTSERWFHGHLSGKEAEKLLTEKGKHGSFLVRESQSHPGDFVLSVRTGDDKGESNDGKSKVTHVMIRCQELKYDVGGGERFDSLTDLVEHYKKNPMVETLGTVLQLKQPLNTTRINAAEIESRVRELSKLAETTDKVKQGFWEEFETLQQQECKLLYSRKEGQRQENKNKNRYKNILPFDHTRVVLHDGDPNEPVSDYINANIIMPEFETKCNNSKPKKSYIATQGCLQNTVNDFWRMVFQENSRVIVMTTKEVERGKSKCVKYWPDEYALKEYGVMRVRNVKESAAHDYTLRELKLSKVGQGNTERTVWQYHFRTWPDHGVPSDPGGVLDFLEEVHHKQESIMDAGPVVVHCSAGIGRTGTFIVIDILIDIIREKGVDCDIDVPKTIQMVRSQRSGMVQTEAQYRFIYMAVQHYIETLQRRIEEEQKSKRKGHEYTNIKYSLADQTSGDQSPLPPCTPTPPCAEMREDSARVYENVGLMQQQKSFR
Method in brief: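 SHP2 activated by 0.5 μM IRS1_pY1172(dPEG8)pY1222 peptide, 0.2 ng enzyme per well, 1 h at room temperature with compound (1 μM top, 3-fold series), then DiFMUP substrate 1 h. Buffer: 60 mM HEPES, 75 mM NaCl, 75 mM KCl, 0.05% BRIJ-35, 1 mM EDTA, 5 mM DTT. Fluorescence ex 340/em 450 nm; IC50 by variable-slope fit.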

Row | Structure (SMILES) | IC50
1 | CC1(C)C=C(c2n[nH]c3nc(N4CCC5(CC4)Cc4ccccc4[C@H]5N)[nH]c(=O)c23)c2cn(CC(F)(F)F)nc2C1 [Example 154, (S)-6-(1-amino-1,3-dihydrospiro[indene-2,4′-piperidin]-1′-yl)-3-(6,6-dimethyl-2-(2,2,2-trifluoroethyl)-6,7-dihydro-2H-indazol-4-yl)-1,5-dihydro-4H-pyrazolo[3,4-d]pyrimidin-4-one] | ≤ 20 nM
2 | CC1(C)C=C(c2n[nH]c3nc(N4CCC5(CC4)Cc4ccccc4[C@H]5N)[nH]c(=O)c23)c2cn(C3CC3)nc2C1 [Example 155, (S)-6-(1-amino-1,3-dihydrospiro[indene-2,4′-piperidin]-1′-y1)-3-(2-cyclopropyl-6,6-dimethyl-6,7-dihydro-2H-indazol-4-yl)-1,5-dihydro-4H-pyrazolo[3,4-d]pyrimidin-4-one] | 20 to 60 nM
3 | CC1(C)C=C(c2n[nH]c3nc(N4CCC5(CC4)Cc4ccccc4[C@H]5N)[nH]c(=O)c23)c2sc(N)nc2C1 [Example 159, (S)-6-(1-amino-1,3-dihydrospiro[indene-2,4′-piperidin]-1′-yl)-3-(2-amino-5,5-dimethyl-4,5-dihydrobenzo[d]thiazol-7-yl)-1,5-dihydro-4H-pyrazolo[3,4-d]pyrimidin-4-one] | 20 to 60 nM
4 | CC1(C)C=C(c2n[nH]c3nc(N4CCC5(CC4)Cc4ccccc4[C@H]5N)[nH]c(=O)c23)c2cc(Br)cnc2C1 [Example 160, (S)-6-(1-amino-1,3-dihydrospiro[indene-2,4′-piperidin]-1′-yl)-3-(3-bromo-7,7-dimethyl-7,8-dihydroquinolin-5-yl)-1,5-dihydro-4H-pyrazolo[3,4-d]pyrimidin-4-one] | ≤ 20 nM
5 | CC1(C)C=C(c2n[nH]c3nc(N4CCC5(CC4)Cc4ccccc4[C@H]5N)[nH]c(=O)c23)c2ccc(Cl)nc2C1 [Example 161, (S)-6-(1-amino-1,3-dihydrospiro[indene-2,4′-piperidin]-1′-yl)-3-(2-chloro-7,7-dimethyl-7,8-dihydroquinolin-5-yl)-1,5-dihydro-4H-pyrazolo[3,4-d]pyrimidin-4-one] | ≤ 20 nM
6 | CC1(C)C=C(c2n[nH]c3nc(N4CCC5(CC4)Cc4ccccc4[C@H]5N)[nH]c(=O)c23)c2ccc(C#N)nc2C1 [Example 162, (S)-5-(6-(1-amino-1,3-dihydrospiro[indene-2,4′-piperidin]-1′-yl)-4-oxo-4,5-dihydro-1H-pyrazolo[3,4-d]pyrimidin-3-yl)-7,7-dimethyl-7,8-dihydroquinoline-2-carbonitrile] | ≤ 20 nM
7 | CC1(C)C=C(c2n[nH]c3nc(N4CCC5(CC4)Cc4ccccc4[C@H]5N)[nH]c(=O)c23)c2cc(C#N)cnc2C1 [Example 163, (S)-5-(6-(1-amino-1,3-dihydrospiro[indene-2,4′-piperidin]-1′-yl)-4-oxo-4,5-dihydro-1H-pyrazolo[3,4-d]pyrimidin-3-yl)-7,7-dimethyl-7,8-dihydroquinoline-3-carbonitrile] | ≤ 20 nM
8 | Cc1cc2c(nn1)CC(C)(C)C=C2c1n[nH]c2nc(N3CCC4(CC3)Cc3ccccc3[C@H]4N)[nH]c(=O)c12 [Example 164, (S)-6-(1-amino-1,3-dihydrospiro[indene-2,4′-piperidin]-1′-yl)-3-(3,7,7-trimethyl-7,8-dihydrocinnolin-5-yl)-1,5-dihydro-4H-pyrazolo[3,4-d]pyrimidin-4-one] | ≤ 20 nM
9 | N[C@@H]1c2ccccc2CC12CCN(c1nc3[nH]nc(C4=CCOc5cc(Cl)ccc54)c3c(=O)[nH]1)CC2 [Example 167, (S)-6-(1-amino-1,3-dihydrospiro[indene-2,4′-piperidin]-1′-yl)-3-(7-chloro-2H-chromen-4-yl)-1,5-dihydro-4H-pyrazolo[3,4-d]pyrimidin-4-one] | ≤ 20 nM
10 | N[C@@H]1c2ccccc2CC12CCN(c1nc3[nH]nc(C4=CCOc5cc(C(F)(F)F)ccc54)c3c(=O)[nH]1)CC2 [Example 168, (S)-6-(1-amino-1,3-dihydrospiro[indene-2,4′-piperidin]-1′-yl)-3-(7-(trifluoromethyl)-2H-chromen-4-yl)-1,5-dihydro-4H-pyrazolo[3,4-d]pyrimidin-4-one] | ≤ 20 nM
11 | N[C@@H]1c2ccccc2CC12CCN(c1nc3[nH]nc(C4=CCC(F)(F)c5ncccc54)c3c(=O)[nH]1)CC2 [Example 169, (S)-6-(1-amino-1,3-dihydrospiro[indene-2,4′-piperidin]-1′-yl)-3-(8,8-difluoro-7,8-dihydroquinolin-5-yl)-1,5-dihydro-4H-pyrazolo[3,4-d]pyrimidin-4-one] | ≤ 20 nM
12 | N[C@@H]1c2ccccc2CC12CCN(c1nc3[nH]nc(C4=CC5(COC5)c5ccccc54)c3c(=O)[nH]1)CC2 [Example 170, (S)-6-(1-amino-1,3-dihydrospiro[indene-2,4′-piperidin]-1′-yl)-3-(spiro[indene-1,3′-oxetan]-3-yl)-1,5-dihydro-4H-pyrazolo[3,4-d]pyrimidin-4-one] | ≤ 20 nM
13 | CN1CC2(C=C(c3n[nH]c4nc(N5CCC6(CC5)Cc5ccccc5[C@H]6N)[nH]c(=O)c34)c3ccccc32)C1 [Example 171, (S)-6-(1-amino-1,3-dihydrospiro[indene-2,4′-piperidin]-1′-yl)-3-(1-methylspiro[azetidine-3,1′-inden]-3′-yl)-1,5-dihydro-4H-pyrazolo[3,4-d]pyrimidin-4-one] | ≤ 20 nM
14 | N[C@@H]1c2ccccc2CC12CCN(c1nc3[nH]nc(C4=CCc5ccccc54)c3c(=O)[nH]1)CC2 [Example 172, (S)-6-(1-amino-1,3-dihydrospiro[indene-2,4′-piperidin]-1′-yl)-3-(1H-inden-3-yl)-1,5-dihydro-4H-pyrazolo[3,4-d]pyrimidin-4-one] | ≤ 20 nM
15 | N[C@@H]1c2ccccc2CC12CCN(c1nc3[nH]nc(C4=CCOc5ccccc54)c3c(=O)[nH]1)CC2 [Example 173, (S)-6-(1-amino-1,3-dihydrospiro[indene-2,4′-piperidin]-1′-yl)-3-(2H-chromen-4-yl)-1,5-dihydro-4H-pyrazolo[3,4-d]pyrimidin-4-one] | ≤ 20 nM
16 | N[C@@H]1c2ccccc2CC12CCN(c1nc3[nH]nc(-c4cc(=O)oc5ccccc45)c3c(=O)[nH]1)CC2 [Example 174, (S)-6-(1-amino-1,3-dihydrospiro[indene-2,4′-piperidin]-1′-yl)-3-(2-oxo-2H-chromen-4-yl)-1,5-dihydro-4H-pyrazolo[3,4-d]pyrimidin-4-one] | ≤ 20 nM
17 | N[C@@H]1c2ccccc2CC12CCN(c1nc3[nH]nc(C4=CC(F)(F)c5ccccc54)c3c(=O)[nH]1)CC2 [Example 175, (S)-6-(1-amino-1,3-dihydrospiro[indene-2,4′-piperidin]-1′-yl)-3-(1,1-difluoro-1H-inden-3-yl)-1,5-dihydro-4H-pyrazolo[3,4-d]pyrimidin-4-one] | ≤ 20 nM
18 | CC1(C)C=C(c2n[nH]c3nc(N4CCC5(CC4)Cc4ccccc4[C@H]5N)[nH]c(=O)c23)c2ccccc21 [Example 176, (S)-6-(1-amino-1,3-dihydrospiro[indene-2,4′-piperidin]-1′-yl)-3-(1,1-dimethyl-1H-inden-3-yl)-1,5-dihydro-4H-pyrazolo[3,4-d]pyrimidin-4-one] | ≤ 20 nM
19 | N[C@@H]1c2ccccc2CC12CCN(c1nc3[nH]nc(C4=CCNc5ccccc54)c3c(=O)[nH]1)CC2 [Example 177, (S)-6-(1-amino-1,3-dihydrospiro[indene-2,4′-piperidin]-1′-yl)-3-(1,2-dihydroquinolin-4-yl)-1,5-dihydro-4H-pyrazolo[3,4-d]pyrimidin-4-one] | ≤ 20 nM
20 | CC1(C)NC=C(c2n[nH]c3nc(N4CCC5(CC4)Cc4ccccc4[C@H]5N)[nH]c(=O)c23)c2ccccc21 [Example 179, (S)-6-(1-amino-1,3-dihydrospiro[indene-2,4′-piperidin]-1′-yl)-3-(1,1-dimethyl-1,2-dihydroisoquinolin-4-yl)-1,5-dihydro-4H-pyrazolo[3,4-d]pyrimidin-4-one] | ≤ 20 nM
21 | N[C@@H]1c2ccccc2CC12CCN(c1nc3[nH]nc(C4=CCS(=O)(=O)c5ccccc54)c3c(=O)[nH]1)CC2 [Example 180, (S)-6-(1-amino-1,3-dihydrospiro[indene-2,4′-piperidin]-1′-yl)-3-(1,1-dioxido-2H-thiochromen-4-yl)-1,5-dihydro-4H-pyrazolo[3,4-d]pyrimidin-4-one] | ≤ 20 nM
22 | N[C@@H]1c2ccccc2CC12CCN(c1nc3[nH]nc(C4=CNS(=O)(=O)c5ccccc54)c3c(=O)[nH]1)CC2 [Example 181, (S)-6-(1-amino-1,3-dihydrospiro[indene-2,4′-piperidin]-1′-yl)-3-(1,1-dioxido-2H-benzo[e][1,2]thiazin-4-yl)-1,5-dihydro-4H-pyrazolo[3,4-d]pyrimidin-4-one] | ≤ 20 nM
23 | N[C@@H]1c2ccccc2CC12CCN(c1nc3[nH]nc(C4=CS(=O)(=O)Cc5ccccc54)c3c(=O)[nH]1)CC2 [Example 182, (S)-6-(1-amino-1,3-dihydrospiro[indene-2,4′-piperidin]-1′-yl)-3-(2,2-dioxido-1H-isothiochromen-4-yl)-1,5-dihydro-4H-pyrazolo[3,4-d]pyrimidin-4-one] | ≤ 20 nM
